One molecule from patent US20200087625A1, “METHODS FOR ISOLATING, EXPANDING AND ADMINISTERING CANCER SPECIFIC CD8+ T CELLS” (priority 2017, published 2020) can be followed below.

One experiment concerns CD8+ T cells. As to the kind of experiment: CD8+ T cell activation (mLN flow cytometry) and lung histology in IV metastasis model. The experiment is classed as in vivo, BALB/c mice. The following applies: day 21, vs vehicle. The procedure: FIGS. 23A-23G. Systemic administration of […] induces tumor-specific CD8^+ T cells. (A) Protocol of IV metastasis model. (B) BALB/c mice (n=B-15/group) were i.v. injected with 4T1 cells (2×10^4) on day 0.1V270 (2, 20, or 200 μg/injection) was i.p. administered on days −1, 7, 10, and 14. The numbers of lung nodules were counted on day 21. (C) 200 μg/injection 1V270 was i.p. administered on days −1 or 0 followed by days 7, 10, and 14 where indicated. The numbers of lung nodules were counted on day 21. Each dot indicates an individual mouse and horizontal and vertical bars indicate means±SEM. *P<0.05, **P<0.01 Kruskal-Wallis test with Dunn's post hoc test comparing treatment groups against vehicle group. (D-G) BALB/c mice (n=10/group) were treated with 1V270 (200 μg/injection) on day-1 and 4T1 cells were inoculated on day 0. (D,E) Three weeks later, mLNs cells were stained for CD3 and CD8. Intracellular granzyme B (D) and IFNγ (E) were analyzed by flow cytometry. Data are representative of 2 independent experiments showing similar results. *P<0.05, by the Mann-Whitney U test comparing the 1V270 treatment groups against the vehicle treated group. (F) Histological analysis of lungs on day 21. Representative images of H&E staining and immunohistochemical staining for CD3 and CD45. Scale bar: 100 μm. Original magnification ×200. (G) Tumor-specific cytotoxicity was examined using 4T1 cells as target cells and BALB/3T3 cells as irrelevant target cells. […] The percent specific killing was calculated. Data were analyzed by two-way ANOVA using a Bonferroni post hoc test comparing treatment groups against vehicle group. *P<0.05. […]
To make the single cell suspensions, tumors were dissociated using the mouse tumor dissociation kit (MiltenyiBiotec, San Diego, Calif.) and the gentle MACSOcto Dissociator according to the manufacture's protocol. […] Total cell number was counted by the ViaCount assay (MilliporeSigma, Darmstadt, Germany). […]
(In general: In flow cytometry, cells or beads pass a laser one at a time.)

The next experiment has as its system B16-GLF cells. As to the kind of experiment: IV metastasis model of B16 melanoma. The experiment is classed as in vivo, mice. The following applies: systemic 1V270 day -1. Here is the method: FIGS. 27A-27D. […] Therapeutic effects of 1V270 were evaluated in IV metastatic models of 816 melanoma (A, B) and LLC (C, D). BG-albino mice (n=B-10) (A, C), C57BL6 wild type mice (n=15-20) (B and D), were i.p. administered with 200 μg 1V270 or vehicle!iNext day, 5×10^5 B16-GLF cells (A) or 1×10^5 LLC-GLF cells (c) were i.v. administered (A,C). The tumor signals were quantified by IVIS at day 14. […] (B,D) The mice were monitored daily and were euthanized upon reaching the criteria according to UCSD IACUC guidelines. The survival data were analyzed by Log-Rank test. Data were pooled from 2 independent experiments showing similar results and were analyzed by Living Image® software. […] Statistical differences were analyzed by the Mann-Whitney U test comparing 1V270 treatment groups against the vehicle. **P<0.05.
GFP and luciferase (GLF)-expressing tumor cells (2×10^4 of 4T1-GLF, 5×10^5 of B16-GLF, and […] of LLC-GLF) were i.v. injected into BALB/c mice for 4T1 models, BG-albino or wild-type C57BU6 for B16 melanoma or LLC models). […] Image data were acquired by 1 Ss exposure using the IVIS Spectrum and analyzed using the Living Image software, version 4.5.2 (Perkin Elmer, Waltham, Mass.). We confirmed that the tumor signals in the lungs at day 10 correlated with the number of lung metastasis determined on day 21, as well as the overall survival (Supplemental figures 10). […]

Each structure is given as a SMILES string.

In the case of `CCCCCCCCC=CCCCCCCCC(=O)OCC(COP(=O)(O)OCCNC(=O)c1ccc(Cn2c(=O)[nH]c3c(N)nc(OCCOC)nc32)cc1)OC(=O)CCCCCCCC=CCCCCCCCC` (centres unmarked) [1V270], the “infiltration of CD45+CD3+ cells in the pulmonary tumor microenvironment” value in the experiment with CD8+ T cells (histology) is on record as “higher infiltration”. Besides, in the experiment with CD8+ T cells (mLN, 1V270 200 μg day -1), the “percentage of IFNγ positive CD8+ T cells” value was “Significantly higher percentages” and the “percentage of granzyme B positive CD8+ T cells” value is on record as “Significantly higher percentages”. In the experiment on B16-GLF cells (B16-GLF, day 14), the “lung metastasis (IVIS tumor signal)” value is reported as “inhibited lung metastasis by day 14”. The mouse survival entry with B16-GLF cells (B16) is “prolonged mouse survival”.
